Literature values as cited in patent US20040047835A1, “Combinatorial drug therapy using polymer drug conjugates” (priority 2002, published 2004).
Where two headings read alike, the source gives them in different places.

Experiments:
[1] = system: cell cycle
[2] = system: mammary MCa-4 tumor; conditions: mammary MCa-4 tumor model; radiation preceded drug injection
[3] = system: tumor-bearing hosts; conditions: compared with free (unconjugated) paclitaxel
[4] = system: ovarian Oca-1 carcinoma; conditions: equivalent paclitaxel dose of 60 mg/kg 24 h after tumor irradiation; versus radiation and paclitaxel

Molecule | effect on cell cycle [1] | interaction of combined radiation and drug [2] | anti-tumor activity / efficacy [3] | anti-tumor activity / efficacy ([3]; listed as PGTXL) | tumor growth delay, combined with radiation [4]
CC(=O)O[C@H]1C(=O)[C@@]2(C)[C@H]([C@H](OC(=O)c3ccccc3)[C@]3(O)C[C@H](OC(=O)[C@H](O)[C@@H](NC(=O)c4ccccc4)c4ccccc4)C(C)=C1C3(C)C)[C@]1(OC(C)=O)CO[C@@H]1C[C@@H]2O [paclitaxel, reference compound] | induced a G2/M arrest | additive or sub-additive interaction |  |  | 
poly(L-glutamic acid)-paclitaxel [PG-TXL] | induced a G2/M arrest | synergistic interaction | increased efficacy | superior anti-tumor activity | significantly greater tumor growth delay
